Values quoted from earlier work as cited in article PMC10289903 (Investigational New Drugs, 2023).

Test system: platinum-resistant or platinum-refractory recurrent ovarian cancer
Settings: placebo plus gemcitabine arm; 95% CI 1.8–3.8; cited from earlier work

## Nc1ccn([C@@H]2O[C@H](CO)[C@@H](O)C2(F)F)c(=O)n1 [gemcitabine, reference compound]
  PFS: 3.0 months
